Test results reported in patent publication US20210002232A1, “HETEROCYCLIC COMPOUNDS AS FUNGICIDES” (PI INDUSTRIES LTD., priority 2018, published 2021).

What was measured:
Corynespora cassiicola = Corynespora cassiicola (leaf spot of tomato) mycelial radial growth on Potato Dextrose Agar; format: cell-based; settings: 300 ppm; radial growth after seven days, 25° C., 70% relative humidity; compared to the untreated check
Phakopsora pachyrhizi = Phakopsora pachyrhizi test in soybean, preventive spray in greenhouse; format: in vivo; settings: preventive spray on soybean plants, inoculated one day after treatment, compared to the untreated check, read-out: control (efficacy from disease severity rating)
Alternaria solani = Alternaria solani (early blight of tomato/potato) mycelial radial growth on Potato Dextrose Agar; settings: 168 h, read-out: control
Protocol: Compounds were dissolved in 0.3% DMSO & then added to Potato Dextrose Agar medium just prior to dispensing it into Petri dishes. 5 ml medium with compound in the desired concentration was dispensed into 60 mm sterile petri-plates. After solidification each plate was seeded with 5 mm size mycelial disc taken form periphery of actively growing virulent culture plate. Plates were incubated in growth chambers at 25° C. temperature and 60% relative humidity for seven days and radial growth was measured.

Pyricularia oryzae = test: microbe, parasite or virus in culture; format: cell-based; settings: 168 h, read-out: control

Row | SMILES | control (Corynespora cassiicola) | pest or weed control at 500 ppm (Phakopsora pachyrhizi) [%] | inhibition of growth at 300 ppm (Alternaria solani) [%] | inhibition of growth at 300 ppm (Pyricularia oryzae) [%]
1 | CS(=O)(=NC(=O)c1ccc(-c2cc(C(F)(F)F)on2)cc1)c1ccc(C(F)(F)F)cc1 (stereo not drawn) [Compound 59, N-(methyl(oxo)(4-(trifluoromethyl)phenyl)-λ^6-sulfaneylidene)-4-(5-(trifluoromethyl)isoxazol-3-yl)benzamide] | more than 70% | – | – | –
2 | CN(C(=O)c1ccc(-c2coc(C(F)(F)F)n2)cc1)c1ccccc1 [Compound 82, N-methyl-N-phenyl-4-(2-(trifluoromethyl)oxazol-4-yl)benzamide] | – | > 90 | > 70 | > 70
3 | CS(=O)(=NC(=O)c1ccc(-c2coc(C(F)(F)F)n2)cc1)c1ccccc1F (stereo not drawn) [Compound 84, N-((2-fluorophenyl)(methyl)(oxo)-λ^6-sulfaneylidene)-4-(2-(trifluoromethyl)oxazol-4-yl)benzamide] | – | – | > 70 | > 70
4 | Cc1ccc(S(C)(=O)=NCc2ccc(C3=NOC(C(F)(F)F)N3)cc2)cc1 (stereo not drawn) [Compound 30, methyl(p-tolyl)((4-(5-(trifluoromethyl)-4,5-dihydro-1,2,4-oxadiazol-3-yl)benzyl)imino)-λ^6-sulfanone] | – | > 90 | > 70 | > 70
5 | CN(CCOc1ccccc1)C(=O)c1ccc(-c2coc(C(F)(F)F)n2)cc1 [Compound 67, N-methyl-N-(2-phenoxyethyl)-4-(2-(trifluoromethyl)oxazol-4-yl)benzamide] | – | > 90 | > 70 | > 70
6 | CS(=O)(=Nc1ccc(C2=NOC(C(F)(F)F)N2)cc1)c1ccccn1 (stereo not drawn) [Compound 24, Methyl(pyridin-2-yl)((4-(5-(trifluoromethyl)-4,5-dihydro-1,2,4-oxadiazol-3-yl)phenyl)imino)-λ^6-sulfanone] | – | > 90 | > 70 | > 70
